These results are taken from patent US20040037775A1, “Leukocyte internalized peptide-drug conjugates” (priority 2000, published 2004).

Data set [1] deals with Molt-3 T-cells. The data set is described as follows: cells. Particulars: 72 h. The data set is classed as cell-based, human. The method, then:
(§1) The cytotoxicity of MTX-peptide conjugates was evaluated in different cell lines, lincluding Molt-3 and L1210 T-cells, and KB epithelial cells. […] After 72 h of growth, the relative numbers of viable cells were determined according to the manufacture's protocols for measuring cytotoxicity using a Dojindo Cytotoxicity Assay Cell counting Kit-8 (CCK-8). To measure the cell viability, 10 μL of CCK-8 was added to each well and the plate was incubated for 4 h. After incubation, the absorbance at 450 nm was measured using a UV plate reader. Cell growth in the presence of different drug concentrations was calculated relative to the value obtained in the absence of the drug. […] Serial dilutions of compounds were prepared in un-supplemented medium, and 110 μL of drug solution was aliquoted in duplicate into 900 μL cell suspensions. Control flasks were treated with 110 μL of un-supplemented medium. Cells were incubated under standard conditions for 48 h, sufficient to allow control cells to divide approximately four times. Growth inhibition was determined by counting the cells on a Z2 model Coulter Counter (Coulter Electronics Ltd, Luton, Beds, UK). The IC50 values were calculated using Graphpad Prism software (Graphpad Software, San Diego, Calif.). KB MTT Assay: KB cells were seeded in Falcons® 96 well plates (Becton-Dickinson Labware Europe, France) at a density of 1,500 cells/well in a volume of 0.18 mL culture medium and incubated under standard culture conditions for 24 h after seeding to allow entry into the exponential phase of cell growth. […] In each assay condition, control cells were treated with 20 μL of un-supplemented medium instead of drug. Cells were incubated for 96 h to allow control cells to divide approximately four times before cell viability was determined by MTT assay.

Data set [2] deals with L1210 mouse leukemia cells. The data set is described as follows: cells. The data set is classed as cell-based. Particulars: 48 h. How it is done: as §1
Data set [3] concerns Molt-3 T-cells. The data set is described as follows: propidium iodide assay of growth and cytotoxicity in Molt-3 T-cells. The data set is classed as cell-based, human. To be noted: tested 0.1-500 μM.
The subject of data set [4] is Molt-3 T-cells/Calu-3 lung epithelial monolayers. The data set is described as follows: heterotypic adhesion of Molt-3 T-cells to Calu-3 lung epithelial monolayers. The data set is classed as cell-based, human. To be noted: for effect on adherence of Molt-3 T-cells to Calu-3 monolayers: IFN-γ-induced Calu-3, PMA-activated Molt-3. The method, then: Molt-3, Caco-2 and Calu-3 cell lines were obtained from the American Type Culture Collection (Rockville, Md.). Molt-3 and Caco-2 cells were maintained and grown using known methods. Briefly, the Caco-2 cell-line was grown as monolayers in Dulbecco's modified Eagle's medium (DMEM) with 25 mM glucose containing 10% FBS, 1% nonessential amino acids, 1 mM Na-pyruvate, 1% L-glutamine and […] of penicillin/streptomycin. Cells were grown in 75-cm^2 tissue culture flasks (Falcon) for maintenance purposes and in a 48-well cell culture cluster (Costar) for heterotypic-adhesion experiments. Before confluency was reached, Caco-2 cells were induced with 100 U/mL IFN-γ for 24 h to up-regulate the ICAM-1 expression. Calu-3, a lung epithelial cell line, was maintained in a 1:1 mixture of Ham's F12:DMEM containing 10% FBS and 100 μg/mL penicillin/streptomycin. Upon reaching 90% confluency (approximately 4-5 days), cells were subcultured at a 1:2 split ratio using 0.25% trypsin/0.1% EDTA. Calu-3 cells were induced with 500 U/mL IFN-γ for 48 h to up-regulate the ICAM-1 expression. All cell lines were grown in a 95% humidified/5% CO2 atmosphere at 37° C.
Heterotypic Adhesion Experiments with LFA-1 derived peptides—Two heterotypic cell adhesion systems were used in this work. The adhesion between Molt-3 T-cells/Calu-3 lung epithelial monolayers was used to assess the inhibitory activities of cLAB.L and cLAB.2L; Molt-3 T-cells/Caco-2 colon epithelial monolayers system was for cLAB.L and its derivatives. Briefly, Calu-3 or Caco-2 cell monolayers were pretreated with peptide solution prior to the adherence of fluorescence-labeled Molt-3 cells. […] Soluble lysates were transferred to 96-well (clear-bottom, black-sided) plates (Costar) for reading in a microplate fluorescence analyzer (Bio-Tek FL600) to give relative fluorescence (FL), i.e., the reading of fluorescence intensity of adherent corrected with the reading of cell monolayers only. Data were presented as the percentage of T-cell adherence calculated as follows: […]

For data set [5], the system named is LFA-1 receptor on Molt-3 T-cells. The data set is described as follows: protection against MTX-cIBR toxicity in Molt-3 T-cells (LFA-1 mediated internalization, MTT). The data set is classed as cell-based, human. Particulars: similar experiment. The method, then: As a control, some cells were left untreated. […] As a reference for minimal metabolic activity, 10 mM of the succinate dehydrogenase inhibitor iodoacetamide (IAA) was added to untreated wells. […] The tubes were spun to pellet the cells and the supernatant was carefully removed. The formazan crystals were dissolved in 200 μL of 0.04 N HCl in isopropanol; the tubes were sonicated for 5 min to completely dissolve crystals and then re-centrifuged to pelletize the cell debris. 100 μL aliquots of the supernatant solutions were removed and transferred to a 96-well microtiter plate. The optical density of the solution was measured at 570 nm using a UV plate reader.

Data set [6] deals with dihydrofolate reductase enzyme (DHFR). As to the kind of experiment: DHFR inhibition assay (spectrophotometric NADPH loss, Dixon plots). The data set is classed as biochemical. How it is done: Into a 2.0 mL cuvette, a 1.0 mL solution of 0.11 mM β-NADPH and 33 μL of 2.3 mM DHFA were aliquoted and allowed to equilibrate. […] To begin the assay, 33 μL of DHFR (0.12-0.25 unit/mL with 0.1% BSA) was added to the reaction mixture. The absorbance of the reaction mixture was then recorded continuously for 5 min at 340 nm and the enzyme activity was determined by the rate of NADPH loss. Enzyme activity was determined for three different fixed concentrations of substrate (0.19, 1.9 and 10.0 mM DHFA).

Another data set deals with KB epithelial cells. The data set is described as follows: KB MTT assay (96 h). The data set is classed as cell-based, human. The method, then:
Human KB epithelial l cells: The human KB epithelial cell line was a gift from Dr Gerrit Jansen (University Free Hospital, Amsterdam, Netherlands) and was developed to overexpress the membrane folate binding protein (mFBP). Cells were cultured in RPMI 1640 medium without folic acid and supplemented with 10% heat inactivated dialyzed FCS (50 mL volume), 0.2 mL of 50 μg/mL gentamicin, 1 mL of 50 μg/mL amphotericin B, and 5 mL of 200 mM L-glutamine. The folate source, 20 nM (R,S)-LV, was added to supply cells with adequate growth conditions.
The cytotoxicity of MTX-peptide conjugates was evaluated in different cell lines, lincluding Molt-3 and L1210 T-cells, and KB epithelial cells. […] After 72 h of growth, the relative numbers of viable cells were determined according to the manufacture's protocols for measuring cytotoxicity using a Dojindo Cytotoxicity Assay Cell counting Kit-8 (CCK-8). To measure the cell viability, 10 μL of CCK-8 was added to each well and the plate was incubated for 4 h. After incubation, the absorbance at 450 nm was measured using a UV plate reader. Cell growth in the presence of different drug concentrations was calculated relative to the value obtained in the absence of the drug. […] Growth inhibition was determined by counting the cells on a Z2 model Coulter Counter (Coulter Electronics Ltd, Luton, Beds, UK). The IC50 values were calculated using Graphpad Prism software (Graphpad Software, San Diego, Calif.). […] Cells were incubated for 96 h to allow control cells to divide approximately four times before cell viability was determined by MTT assay.
The number of viable cells after a 96-h incubation was determined by assessing their ability to reduce MTT ([…]). […] The absorbance of the solution in each well was measured at 540 nm on a MCC/340 model Titertak Multiscan® plate reader (Labsystems/Flow Laboratories, Oxfordshire, UK). The results were analyzed using Ascent Research software v.2.1 (Labsystems, UK).
In general terms: Tetrazolium dyes change colour on reduction, which living cells bring about.

Entries after “also recorded” stand apart in the source; their conditions may differ. Starred links: 1 amine or outer side, 2 acyl side, 3 side chain; linkers in the order of their positions; H or OH if unused. Positions of bridges follow the written chain, without caps; N, C: chain ends. Non-standard residues stand in square brackets, D forms with d. Residues, ends and D or L forms follow the SMILES beside them. *: point of attachment. DAMPA = CN(Cc1cnc2nc(N)nc(N)c2n1)c1ccc(C(=O)*)cc1; γGlu = O=C(O)[C@H](CCC(=O)[*:2])N[*:1]; Pen = CC(C)(S)[C@H](N)C(=O)O Where only a bound is given, the exact number is not on record here.

In general, IC50 refers to the point on the concentration scale where inhibition reaches its midpoint. A higher IC50 goes with weaker potency. For `CC[C@H](C)[C@H](NC(=O)[C@@H](NC(=O)CC[C@H](NC(=O)c1ccc(N(C)Cc2cnc3nc(N)nc(N)c3n2)cc1)C(=O)O)C(C)C)C(=O)N[C@@H](CC(C)C)C(=O)N1CCC[C@H]1C(=O)N[C@@H](CCCNC(=N)N)C(=O)NCC(N)=O` [MTX-VILPRG] ({DAMPA-γGlu}-VILPRG-NH2), the IC50 is 9.12 ± 0.2 µM with Molt-3 T-cells [1] and 0.7 ± 0.3 µM in data set [2].
As to cyclol,12-PenDLSTSLDDLRC [cLBE.L], the “concentration at which total growth inhibition emerged in Molt-3 cells” value in the data set with Molt-3 T-cells [3] was found to be 100 µM.
Regarding `CC(C)[C@H](NC(=O)[C@H](CO)NC(=O)CNC(=O)CNC(=O)[C@H](CCCNC(=N)N)NC(=O)[C@@H]1CCCN1C(=O)CC[C@H](NC(=O)c1ccc(N(C)Cc2cnc3nc(N)nc(N)c3n2)cc1)C(=O)O)C(N)=O` [MTX-PRGGSV] ({DAMPA-γGlu}-PRGGSV-NH2), the IC50 with Molt-3 T-cells [1] is 5.13 ± 0.6 µM; in data set [2], 1.6 ± 0.4 µM.
For the molecule “Xaa-Gly Val Asp Val Asp Glp Asp Gly Glu Thr-Cys [cLAB.2L, cyclic domain V peptide of LFA-1]”, the “effect on adherence of Molt-3 T-cells to Calu-3 monolayers” value in data set [4] is reported as “did not interfere; also recorded: no significant effect”.
Take `CC(C)C[C@@H]1NC(=O)[C@H](C(C)C)NC(=O)[C@H](CO)NC(=O)CNC(=O)CNC(=O)[C@H](CCCNC(=N)N)NC(=O)[C@@H]2CCCN2C(=O)[C@@H](N)C(C)(C)SSC[C@@H](C(=O)O)NC(=O)CNC(=O)[C@H]([C@@H](C)O)NC(=O)[C@H](C(C)C)NC1=O` [cIBR peptide] (H-[Pen]PRGGSVLVTGC-OH; disulfide 1-12): the “effect on cytotoxicity of MTX-cIBR” value in data set [5] is “reduced the cytotoxicity of MTX-cIBR in a concentration dependent manner”.
For cyclol,12-PenITDGEATDSGC [cLAB.L], the “effect on adherence of Molt-3 T-cells to Calu-3 monolayers” value in data set [4] is “significantly reduces”. In data set [4] (IFN-γ-induced Calu-3 monolayers, BCECF labeled Molt-3 cells), the “inhibition of heterotypic cell adhesion” value is listed as “about 40%”. Moreover, in the data set on Molt-3 T-cells [3], the “concentration at which total growth inhibition emerged in Molt-3 cells” value was determined as 100 µM.
Turning to `CC[C@H](C)[C@@H]1NC(=O)[C@H](C(C)C)NC(=O)[C@H](CCCCN)NC(=O)[C@H](CO)NC(=O)[C@@H]2CCCN2C(=O)[C@H](CO)NC(=O)[C@H](C(C)C)NC(=O)[C@H](CO)NC(=O)[C@H]([C@@H](C)O)NC(=O)[C@H](CCC(N)=O)NC(=O)[C@@H](NC(=O)CC[C@H](NC(=O)c2ccc(N(C)Cc3cnc4nc(N)nc(N)c4n3)cc2)C(=O)O)C(C)(C)SSC[C@@H](C(=O)O)NC1=O` [MTX-cIBL] ({DAMPA-γGlu}-[Pen]QTSVSPSKVIC-OH; disulfide 1-12), in data set [6], the “Km relative to that of MTX” value was “approximately 4 fold”. Further, the Ymax in data set [6] (from Dixon plots) is reported as 4.26 ± 0.07 × 10^−4. Further, the IC50 in the data set on Molt-3 T-cells [1] was 2.68 ± 0.2 µM; in data set [2] it was 9.14 ± 1 µM; in the data set on KB epithelial cells it was above 10 µM.
